Reference: the kinase profiling compilation of Christmann-Franck et al. (2016)

Tests used:
Experiment in all cases: radiometric filter-binding kinase assay, Kinase HotSpot
Settings in all cases: compound 0.5 µM; ATP 10 µM
ACVR1 (human) = ACVR1 (human) (UniProt Q04771)
BRSK1 (human) = BRSK1 (human) (UniProt Q8TDC3)
CAMK1 (human) = CAMK1 (human) (UniProt Q14012)
CAMK1G (human) = CAMK1G (human) (UniProt Q96NX5)
CAMK2D (human) = CAMK2D (human) (UniProt Q13557)
CHUK (human) = CHUK (human) (UniProt O15111)
CSNK1G1 (human) = CSNK1G1 (human) (UniProt Q9HCP0)
CSNK1G1 (human), sequence (Q9HCP0 whole entry, looked up): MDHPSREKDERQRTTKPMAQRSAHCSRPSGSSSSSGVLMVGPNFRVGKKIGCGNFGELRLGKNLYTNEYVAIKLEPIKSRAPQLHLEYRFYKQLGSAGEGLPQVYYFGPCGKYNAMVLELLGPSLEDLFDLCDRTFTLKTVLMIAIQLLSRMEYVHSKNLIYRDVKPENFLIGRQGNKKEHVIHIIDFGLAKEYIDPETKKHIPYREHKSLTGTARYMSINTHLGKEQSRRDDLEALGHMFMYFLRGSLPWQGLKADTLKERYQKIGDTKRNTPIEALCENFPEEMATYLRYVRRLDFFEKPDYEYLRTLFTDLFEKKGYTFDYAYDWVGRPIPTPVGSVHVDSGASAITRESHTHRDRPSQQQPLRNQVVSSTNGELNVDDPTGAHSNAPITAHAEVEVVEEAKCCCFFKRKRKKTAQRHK

CSNK2A1 (human) = CSNK2A1 (human) (UniProt P68400)
DAPK1 (human) = DAPK1 (human) (UniProt P53355)
DDR2 (human) = DDR2 (human) (UniProt Q16832)
EPHA1 (human) = EPHA1 (human) (UniProt P21709)
EPHA2 (human) = EPHA2 (human) (UniProt P29317)
EPHA2 (human), sequence (P29317 whole entry, looked up): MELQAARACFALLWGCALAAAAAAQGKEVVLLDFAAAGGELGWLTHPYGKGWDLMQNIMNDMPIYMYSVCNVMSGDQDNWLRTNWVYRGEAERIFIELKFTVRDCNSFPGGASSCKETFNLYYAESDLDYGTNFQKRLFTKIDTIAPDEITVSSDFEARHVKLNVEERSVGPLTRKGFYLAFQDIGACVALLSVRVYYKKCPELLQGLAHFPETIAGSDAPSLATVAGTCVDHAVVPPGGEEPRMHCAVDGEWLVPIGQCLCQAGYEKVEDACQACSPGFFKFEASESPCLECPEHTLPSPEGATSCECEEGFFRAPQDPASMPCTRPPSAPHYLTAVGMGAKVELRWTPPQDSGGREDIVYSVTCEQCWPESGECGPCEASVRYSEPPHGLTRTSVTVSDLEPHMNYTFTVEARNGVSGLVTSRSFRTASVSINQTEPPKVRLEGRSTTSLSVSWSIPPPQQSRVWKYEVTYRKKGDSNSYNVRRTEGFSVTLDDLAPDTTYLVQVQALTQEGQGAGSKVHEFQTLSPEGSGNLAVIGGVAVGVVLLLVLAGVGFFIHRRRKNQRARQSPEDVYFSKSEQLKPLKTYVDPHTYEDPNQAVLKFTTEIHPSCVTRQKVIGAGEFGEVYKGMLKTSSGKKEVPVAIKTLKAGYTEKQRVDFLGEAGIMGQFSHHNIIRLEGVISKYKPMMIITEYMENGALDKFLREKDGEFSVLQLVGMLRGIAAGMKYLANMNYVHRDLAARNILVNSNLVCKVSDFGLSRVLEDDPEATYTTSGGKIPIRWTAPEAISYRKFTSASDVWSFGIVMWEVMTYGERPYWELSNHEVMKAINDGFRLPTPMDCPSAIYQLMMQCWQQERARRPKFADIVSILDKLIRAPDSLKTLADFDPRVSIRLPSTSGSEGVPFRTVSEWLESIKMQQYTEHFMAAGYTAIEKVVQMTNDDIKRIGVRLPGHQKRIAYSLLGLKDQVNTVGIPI

EPHA3 (human) = EPHA3 (human) (UniProt P29320)
EPHA7 (human) = EPHA7 (human) (UniProt Q15375)
EPHA7 (human), sequence (Q15375 whole entry, looked up): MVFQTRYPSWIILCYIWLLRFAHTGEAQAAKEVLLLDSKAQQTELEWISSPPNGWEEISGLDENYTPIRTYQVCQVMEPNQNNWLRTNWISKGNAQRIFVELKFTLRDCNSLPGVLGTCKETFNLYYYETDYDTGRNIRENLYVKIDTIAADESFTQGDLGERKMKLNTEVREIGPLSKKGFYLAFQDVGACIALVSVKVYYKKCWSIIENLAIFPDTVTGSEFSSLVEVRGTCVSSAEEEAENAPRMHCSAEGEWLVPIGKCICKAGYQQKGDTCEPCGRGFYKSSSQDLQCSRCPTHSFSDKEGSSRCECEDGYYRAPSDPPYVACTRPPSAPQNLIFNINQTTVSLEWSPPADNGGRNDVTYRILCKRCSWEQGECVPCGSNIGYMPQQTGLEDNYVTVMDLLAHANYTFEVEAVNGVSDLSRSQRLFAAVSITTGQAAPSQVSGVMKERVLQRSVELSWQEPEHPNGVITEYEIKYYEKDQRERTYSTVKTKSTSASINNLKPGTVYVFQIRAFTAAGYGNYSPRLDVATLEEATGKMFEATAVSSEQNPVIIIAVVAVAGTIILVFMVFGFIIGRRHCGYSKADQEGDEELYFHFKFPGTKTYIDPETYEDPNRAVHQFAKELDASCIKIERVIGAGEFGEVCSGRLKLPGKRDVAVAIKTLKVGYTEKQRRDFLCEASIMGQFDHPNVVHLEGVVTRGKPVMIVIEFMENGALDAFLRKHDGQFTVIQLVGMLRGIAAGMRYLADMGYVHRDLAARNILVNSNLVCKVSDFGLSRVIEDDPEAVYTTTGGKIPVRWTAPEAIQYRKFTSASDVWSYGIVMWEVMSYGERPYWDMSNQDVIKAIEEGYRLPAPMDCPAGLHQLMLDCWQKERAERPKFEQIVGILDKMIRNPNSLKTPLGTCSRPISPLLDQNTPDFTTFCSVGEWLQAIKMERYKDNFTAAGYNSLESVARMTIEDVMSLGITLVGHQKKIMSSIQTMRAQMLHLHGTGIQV

EPHB1 (human) = EPHB1 (human) (UniProt P54762)
FER (human) = FER (human) (UniProt P16591)
GRK6 (human) = GRK6 (human) (UniProt P43250)
HIPK1 (human) = HIPK1 (human) (UniProt Q86Z02)
HIPK2 (human) = HIPK2 (human) (UniProt Q9H2X6)
IRAK1 (human) = IRAK1 (human) (UniProt P51617)
LTK (human) = LTK (human) (UniProt P29376)
LTK (human), sequence (P29376 whole entry, looked up): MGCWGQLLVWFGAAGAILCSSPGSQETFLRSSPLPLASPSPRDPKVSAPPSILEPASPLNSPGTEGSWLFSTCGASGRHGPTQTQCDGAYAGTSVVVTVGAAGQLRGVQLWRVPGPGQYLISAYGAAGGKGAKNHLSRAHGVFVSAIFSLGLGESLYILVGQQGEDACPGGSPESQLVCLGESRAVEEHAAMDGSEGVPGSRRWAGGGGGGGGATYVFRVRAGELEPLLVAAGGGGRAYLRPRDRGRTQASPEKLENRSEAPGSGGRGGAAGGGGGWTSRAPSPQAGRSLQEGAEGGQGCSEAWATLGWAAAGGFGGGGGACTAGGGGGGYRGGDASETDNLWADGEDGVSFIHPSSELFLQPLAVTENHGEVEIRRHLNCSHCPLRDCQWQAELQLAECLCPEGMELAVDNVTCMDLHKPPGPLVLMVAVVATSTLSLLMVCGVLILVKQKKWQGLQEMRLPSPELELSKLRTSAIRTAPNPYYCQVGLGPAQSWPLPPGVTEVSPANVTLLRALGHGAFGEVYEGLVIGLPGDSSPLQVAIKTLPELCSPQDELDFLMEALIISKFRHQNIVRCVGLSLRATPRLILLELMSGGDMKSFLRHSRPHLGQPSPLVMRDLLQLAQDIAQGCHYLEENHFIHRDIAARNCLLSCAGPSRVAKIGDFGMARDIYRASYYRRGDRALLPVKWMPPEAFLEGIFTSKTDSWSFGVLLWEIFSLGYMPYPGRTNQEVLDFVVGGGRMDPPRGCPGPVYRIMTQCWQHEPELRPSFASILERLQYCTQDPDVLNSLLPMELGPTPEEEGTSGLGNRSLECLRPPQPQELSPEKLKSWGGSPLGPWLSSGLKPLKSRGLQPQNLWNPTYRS

MAP3K5 (human) = MAP3K5 (human) (UniProt Q99683)
MAPK1 (human) = MAPK1 (human) (UniProt P28482)
MAPK8 (human) = MAPK8 (human) (UniProt P45983)
MARK2 (human) = MARK2 (human) (UniProt Q7KZI7)
MST1R (human) = MST1R (human) (UniProt Q04912)
MYO3B (human) = MYO3B (human) (UniProt Q8WXR4)
NEK3 (human) = NEK3 (human) (UniProt P51956)
NEK4 (human) = NEK4 (human) (UniProt P51957)
NEK6 (human) = NEK6 (human) (UniProt Q9HC98)
NEK7 (human) = NEK7 (human) (UniProt Q8TDX7)
NEK7 (human), sequence (Q8TDX7 whole entry, looked up): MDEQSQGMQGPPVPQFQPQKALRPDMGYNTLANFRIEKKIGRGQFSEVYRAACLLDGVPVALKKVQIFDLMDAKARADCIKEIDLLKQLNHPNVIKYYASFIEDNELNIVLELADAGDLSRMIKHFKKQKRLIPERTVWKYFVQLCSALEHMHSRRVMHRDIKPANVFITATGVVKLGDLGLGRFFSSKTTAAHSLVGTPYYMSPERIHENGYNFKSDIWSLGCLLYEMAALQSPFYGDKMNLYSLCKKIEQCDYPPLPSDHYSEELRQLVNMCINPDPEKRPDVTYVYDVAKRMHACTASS

PRKCB1 (human) = PRKCB1 (human) (UniProt P05771)
PRKCI (human) = PRKCI (human) (UniProt P41743)
PRKD2 (human) = PRKD2 (human) (UniProt Q9BZL6)
PRKD2 (human), sequence (Q9BZL6 whole entry, looked up): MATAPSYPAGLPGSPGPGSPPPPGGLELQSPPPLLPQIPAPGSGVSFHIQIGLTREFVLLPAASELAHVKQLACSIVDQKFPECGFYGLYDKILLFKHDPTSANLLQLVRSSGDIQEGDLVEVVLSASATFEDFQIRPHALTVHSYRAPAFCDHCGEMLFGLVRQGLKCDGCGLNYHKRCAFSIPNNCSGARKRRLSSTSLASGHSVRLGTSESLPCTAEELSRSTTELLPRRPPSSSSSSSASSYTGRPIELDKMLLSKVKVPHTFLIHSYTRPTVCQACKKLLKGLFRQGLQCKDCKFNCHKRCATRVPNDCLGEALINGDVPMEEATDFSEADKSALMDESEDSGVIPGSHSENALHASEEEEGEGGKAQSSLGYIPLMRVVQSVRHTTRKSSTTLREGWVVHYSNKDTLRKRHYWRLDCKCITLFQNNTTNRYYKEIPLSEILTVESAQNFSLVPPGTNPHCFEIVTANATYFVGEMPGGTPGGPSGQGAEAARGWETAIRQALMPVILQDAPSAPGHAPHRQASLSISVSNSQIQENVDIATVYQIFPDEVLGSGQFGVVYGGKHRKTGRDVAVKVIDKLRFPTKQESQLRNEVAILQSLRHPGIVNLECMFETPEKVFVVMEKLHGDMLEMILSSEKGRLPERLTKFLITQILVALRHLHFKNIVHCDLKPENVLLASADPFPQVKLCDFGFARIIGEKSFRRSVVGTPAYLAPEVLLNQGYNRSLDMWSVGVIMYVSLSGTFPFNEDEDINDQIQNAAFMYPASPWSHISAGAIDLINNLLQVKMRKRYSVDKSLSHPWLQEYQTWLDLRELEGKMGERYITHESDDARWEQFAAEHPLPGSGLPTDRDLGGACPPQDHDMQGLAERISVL

PTK6 (human) = PTK6 (human) (UniProt Q13882)
RPS6KB1 (human) = RPS6KB1 (human) (UniProt P23443)
RPS6KB1 (human), sequence (P23443 whole entry, looked up): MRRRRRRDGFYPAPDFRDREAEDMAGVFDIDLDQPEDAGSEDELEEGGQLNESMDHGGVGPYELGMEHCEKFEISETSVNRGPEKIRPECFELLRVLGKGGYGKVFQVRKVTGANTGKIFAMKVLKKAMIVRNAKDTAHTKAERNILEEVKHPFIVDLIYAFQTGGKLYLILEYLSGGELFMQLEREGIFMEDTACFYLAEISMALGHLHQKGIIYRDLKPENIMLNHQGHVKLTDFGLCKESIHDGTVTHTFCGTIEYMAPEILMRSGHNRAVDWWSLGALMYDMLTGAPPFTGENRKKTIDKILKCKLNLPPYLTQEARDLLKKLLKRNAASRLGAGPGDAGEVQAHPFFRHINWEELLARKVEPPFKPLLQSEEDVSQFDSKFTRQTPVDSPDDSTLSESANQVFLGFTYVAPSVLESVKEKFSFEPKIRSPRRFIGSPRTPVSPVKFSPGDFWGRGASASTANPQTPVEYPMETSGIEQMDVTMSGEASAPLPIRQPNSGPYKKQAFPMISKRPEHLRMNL

SRMS (human) = SRMS (human) (UniProt Q9H3Y6)
STK25 (human) = STK25 (human) (UniProt O00506)
SYK (human) = SYK (human) (UniProt P43405)
TAOK1 (human) = TAOK1 (human) (UniProt Q7L7X3)
ULK2 (human) = ULK2 (human) (UniProt Q8IYT8)
CDK5 CDK5R1 p25 (human) = CDK5 CDK5R1 p25 (human) (UniProt Q00535+Q15078)

Nc1ncnc2c1c(-c1ccc(Oc3ccccc3)cc1)cn2C1CCCC1
residual activity (ACVR1 (human)): 95.4% | residual activity (BRSK1 (human)): 99.7% | residual activity (CAMK1 (human)): 100% | residual activity (CAMK1G (human)): 95.8% | residual activity (CAMK2D (human)): 99.5% | residual activity (CHUK (human)): 99.7% | residual activity (CSNK1G1 (human)): 90.8% | residual activity (CSNK2A1 (human)): 102% | residual activity (DAPK1 (human)): 79.1% | residual activity (DDR2 (human)): 95% | residual activity (EPHA1 (human)): 101% | residual activity (EPHA2 (human)): 100% | residual activity (EPHA3 (human)): 96.3% | residual activity (EPHA7 (human)): 98.3% | residual activity (EPHB1 (human)): 94.5% | residual activity (FER (human)): 88.1% | residual activity (GRK6 (human)): 92.6% | residual activity (HIPK1 (human)): 114% | residual activity (HIPK2 (human)): 106% | residual activity (IRAK1 (human)): 110% | residual activity (LTK (human)): 86.3% | residual activity (MAP3K5 (human)): 99.1% | residual activity (MAPK1 (human)): 80.7% | residual activity (MAPK8 (human)): 117% | residual activity (MARK2 (human)): 86.4% | residual activity (MST1R (human)): 94% | residual activity (MYO3B (human)): 103% | residual activity (NEK3 (human)): 98.4% | residual activity (NEK4 (human)): 92.1% | residual activity (NEK6 (human)): 107% | residual activity (NEK7 (human)): 94.6% | residual activity (PRKCB1 (human)): 92.8% | residual activity (PRKCI (human)): 103% | residual activity (PRKD2 (human)): 91.5% | residual activity (PTK6 (human)): 0.775% | residual activity (RPS6KB1 (human)): 104% | residual activity (SRMS (human)): 14.2% | residual activity (STK25 (human)): 113% | residual activity (SYK (human)): 104% | residual activity (TAOK1 (human)): 84.6% | residual activity (ULK2 (human)): 125%

Nc1ncnc2[nH]nc(Nc3ccc(F)cc3)c12
residual activity (ACVR1 (human)): 127% | residual activity (BRSK1 (human)): 63% | residual activity (CAMK1 (human)): 103% | residual activity (CAMK1G (human)): 97.2% | residual activity (CAMK2D (human)): 92.5% | residual activity (CDK5 CDK5R1 p25 (human)): 82.5% | residual activity (CHUK (human)): 99.5% | residual activity (CSNK1G1 (human)): 83.3% | residual activity (CSNK2A1 (human)): 89.9% | residual activity (DAPK1 (human)): 116% | residual activity (DDR2 (human)): 94.2% | residual activity (EPHA1 (human)): 101% | residual activity (EPHA2 (human)): 89.9% | residual activity (EPHA3 (human)): 107% | residual activity (EPHA7 (human)): 101% | residual activity (FER (human)): 100% | residual activity (GRK6 (human)): 103% | residual activity (HIPK1 (human)): 106% | residual activity (HIPK2 (human)): 106% | residual activity (IRAK1 (human)): 91.8% | residual activity (LTK (human)): 92.5% | residual activity (MAP3K5 (human)): 111% | residual activity (MAPK1 (human)): 80.8% | residual activity (MAPK8 (human)): 111% | residual activity (MARK2 (human)): 87% | residual activity (MST1R (human)): 93.7% | residual activity (MYO3B (human)): 87.9% | residual activity (NEK3 (human)): 102% | residual activity (NEK4 (human)): 92.8% | residual activity (NEK6 (human)): 102% | residual activity (NEK7 (human)): 97% | residual activity (PRKCB1 (human)): 95.9% | residual activity (PRKCI (human)): 91.3% | residual activity (PRKD2 (human)): 81.3% | residual activity (PTK6 (human)): 68.3% | residual activity (RPS6KB1 (human)): 94.3% | residual activity (SRMS (human)): 104% | residual activity (STK25 (human)): 112% | residual activity (SYK (human)): 97.4% | residual activity (TAOK1 (human)): 92% | residual activity (ULK2 (human)): 110%
